Reference: US7223759B2, “Antibacterial 3,5-diaminopiperidine-substituted aromatic and heteroaromatic compounds” (Anadys Pharmaceuticals, Inc., priority 2003, dated 2007)

These molecules were tested on Escherichia coli (ATCC25922) or Staphylococcus aureus (ATCC25923) (assay: Antibacterial MIC, microdilution method in Mueller-Hinton medium). Conditions: Escherichia coli, 18 h, MIC in E. coli or S. aureus; two-fold serial dilutions 64 to 0.5 μg/ml in duplicate; 18 hours of incubation at 35° C.; read-out: Potency (MIC).
Format: cell-based
In short: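 Read after 18 h incubation at 35° C, MIC is the lowest compound level that blocked growth. Compounds were tested in duplicate over 64–0.5 μg/ml two-fold dilutions using Mueller-Hinton microdilution per NCCLS standard.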

**Q.** For `Cl.N[C@@H]1C[C@H](N)CN(c2nc(Nc3cccc(C(F)(F)F)c3)nc(N3C[C@H](N)C[C@H](N)C3)n2)C1` [N-(3-trifluoromethyl-phenyl)-4,6-Bis-((3R,5S)-3,5-diamino-piperidin-1-yl)-[1,3,5]triazine-2-amine], which MIC is on record?
**A.** Its MIC is less than 64 µg/mL.

**Q.** How did the MIC turn out when `Cl.O=C(Oc1ccccc1)c1ccc(Nc2cc(N3CCCCC3)cc(N3CCCCC3)c2)cc1O` [4-[4-((3S,5R)-3,5-Diamino-piperidin-1-yl)-6-((R)-3-hydroxy-piperidin-1-yl)-[1,3,5]triazin-2-ylamino]-2-hydroxy-benzoicacidphhenylester] was run?
**A.** Its MIC is less than 64 µg/mL.

**Q.** Which MIC does the source give for `Cc1cc(Nc2nc(N3C[C@H](N)C[C@H](N)C3)nc(N3C[C@H](N)C[C@H](N)C3)n2)no1.Cl` [N-(5-methyl-isoxazol-3-yl)-4,6-Bis-((3R,5S)-3,5-diamino-piperidin-1-yl)-[1,3,5]triazine-2-amine] here?
**A.** Its MIC is greater than 64 µg/mL.

**Q.** Which MIC does the source give for `N[C@@H]1C[C@H](N)CN(c2nc(Nc3ccc4ccc5cccc6ccc3c4c56)nc(N3C[C@H](N)C[C@H](N)C3)n2)C1` [N-pyren-1-yl-4,6-Bis-((3R,5S)-3,5-diamino-piperidin-1-yl)-[1,3,5]triazine-2-amine] here?
**A.** The MIC was less than 16 µg/mL.

**Q.** How did the MIC turn out when `CNC(=N)Nc1ccc(Nc2nc(C3CCCCC3)nc(N3CCCCC3)n2)cc1.Cl` [N-[4-(N-methyl-quanidino)-phenyl]-4,6-Bis-((3R,5S)-3,5-diamino-piperidin-1-yl)-[1,3,5]triazine-2-amine] was run?
**A.** Its MIC is greater than 64 µg/mL.

Same assay, conditions: Escherichia coli, 18 h, read-out: Potency (MIC)

**Q.** For `N[C@@H]1C[C@H](N)CN(c2nc(NNC3=NCCCN3)nc(N3C[C@H](N)C[C@H](N)C3)n2)C1` [N-(4,6-Bis-((3R,5S)-3,5-diamino-piperidin-1-yl)-[1,3,5]triazin-2-yl)-N′-(1,4,5,6-tetrahydro-pyrimidin-2-yl)-hydrazine], which MIC is on record?
**A.** Its MIC is greater than 64 µg/mL.

**Q.** With `N[C@@H]1C[C@H](N)CN(c2nc(Nc3ccc(C(=O)CC(=O)Nc4ccc(SC(F)(F)F)cc4)cc3)nc(N3C[C@H](N)C[C@H](N)C3)n2)C1` [N-{4-[2-(4-trifluoromethylsulfanyl-phenylcarbamoyl)-acetyl]-phenyl}-4,6-Bis-((3R,5S)-3,5-diamino-piperidin-1-yl)-[1,3,5]triazine-2-amine] as the molecule, how does the MIC read?
**A.** The MIC was less than 16 µg/mL.

**Q.** For `CCCCCC(CC)C(=O)Nc1ccc(S(=O)(=O)Nc2ccc(Nc3nc(N4C[C@H](N)C[C@H](N)C4)nc(N4C[C@H](N)C[C@H](N)C4)n3)cc2O)cc1` (stereo partly drawn) [N-{4-[4-(2-ethyl-heptanoylamino)-benzenesulfonylamino]-3-hydroxy-phenyl}-4,6-Bis-((3R,5S)-3,5-diamino-piperidin-1-yl)-[1,3,5]triazine-2-amine], which MIC is on record?
**A.** The MIC was less than 16 µg/mL.

**Q.** `N[C@@H]1C[C@H](N)CN(c2nc(Nc3ccc(NC(=O)c4cccnc4O)c(O)c3)nc(N3C[C@H](N)C[C@H](N)C3)n2)C1` [N-{3-hydroxy-4-[(2-hydroxy-pyridine-3-carbonyl)-amino]-phenyl}-4,6-Bis-((3R,5S)-3,5-diamino-piperidin-1-yl)-[1,3,5]triazine-2-amine] was tested. Which MIC did it give?
**A.** Its MIC is less than 16 µg/mL.

**Q.** With `N[C@@H]1C[C@H](N)CN(c2nc(Nc3ccc(NC(=O)C=Cc4ccccc4)c(O)c3)nc(N3C[C@H](N)C[C@H](N)C3)n2)C1` [N-[3-hydroxy-4-(3-phenyl-acryloylamino)-phenyl]-4,6-Bis-((3R,5S)-3,5-diamino-piperidin-1-yl)-[1,3,5]triazine-2-amine] as the molecule, how does the MIC read?
**A.** The MIC was less than 16 µg/mL.

**Q.** Which MIC does the source give for `N[C@@H]1C[C@H](N)CN(c2nc(Nc3ccc(NC(=O)c4ccc(Cl)cc4)c(O)c3)nc(N3C[C@H](N)C[C@H](N)C3)n2)C1` [N-[4-(4-chloro-benzoylamino)-3-hydroxy-phenyl]-4,6-Bis-((3R,5S)-3,5-diamino-piperidin-1-yl)-[1,3,5]triazine-2-amine] here?
**A.** The MIC was less than 16 µg/mL.

**Q.** `N[C@@H]1C[C@H](N)CN(c2nc(Nc3ccc(C(=O)Nc4ccc(-c5ccccc5)cc4)c(O)c3)nc(N3C[C@H](N)C[C@H](N)C3)n2)C1` [N-[4-(biphenyl-4-ylcarbamoyl)-3-hydroxy-phenyl]-4,6-Bis-((3R,5S)-3,5-diamino-piperidin-1-yl)-[1,3,5]triazine-2-amine] was tested. Which MIC did it give?
**A.** Its MIC is less than 16 µg/mL.

**Q.** With `N[C@@H]1C[C@H](N)CN(c2nc(Nc3ccc(NC(=O)c4cc(Br)ccc4O)c(O)c3)nc(N3C[C@H](N)C[C@H](N)C3)n2)C1` [N-[4-(5-bromo-2-hydroxy-benzoylamino)-3-hydroxy-phenyl]-4,6-Bis-((3R,5S)-3,5-diamino-piperidin-1-yl)-[1,3,5]triazine-2-amine] as the molecule, how does the MIC read?
**A.** Its MIC is less than 16 µg/mL.

**Q.** With `N[C@@H]1C[C@H](N)CN(c2nc(Nc3ccc(C(=O)CC(=O)Nc4cccc(SC(F)(F)F)c4)cc3)nc(N3C[C@H](N)C[C@H](N)C3)n2)C1` [N-{4-[2-(3-trifluoromethylsulfanyl-phenylcarbamoyl)-acetyl]-phenyl}-4,6-Bis-((3R,5S)-3,5-diamino-piperidin-1-yl)-[1,3,5]triazine-2-amine] as the molecule, how does the MIC read?
**A.** The MIC was less than 16 µg/mL.

**Q.** With `NCCN(CCN)c1nc(Nc2ccc(NC(=O)c3ccc4ccccc4c3O)cc2)nc(N2C[C@H](N)C[C@H](N)C2)n1` [1-Hydroxy-naphthalene-2-carboxylic acid {4-[4-[bis-(2-amino-ethyl)-amino]-6-((3R,5S)-3,5-diamino-piperidin-1-yl)-[1,3,5]triazin-2-ylamino]-phenyl}-amide] as the molecule, how does the MIC read?
**A.** Its MIC is less than 16 µg/mL.

**Q.** How did the MIC turn out when `N[C@@H]1C[C@H](N)CN(c2nc(Nc3ccc(NC(=O)c4ccc(Cl)cc4O)c(Cl)c3)nc(N3C[C@H](N)C[C@H](N)C3)n2)C1` [N-[3-chloro-4-(4-chloro-2-hydroxy-benzoylamino)-phenyl]-4,6-Bis-((3R,5S)-3,5-diamino-piperidin-1-yl)-[1,3,5]triazine-2-amine] was run?
**A.** The MIC was less than 16 µg/mL.

**Q.** How did the MIC turn out when `COc1ccc(Nc2nc(N3C[C@H](N)C[C@H](N)C3)nc(N3C[C@H](N)C[C@H](N)C3)n2)c([N+](=O)[O-])c1` [N-(4-methoxy-2-nitro-phenyl)-4,6-Bis-((3R,5S)-3,5-diamino-piperidin-1-yl)-[1,3,5]triazine-2-amine] was run?
**A.** The MIC was greater than 64 µg/mL.

**Q.** How did the MIC turn out when `N#Cc1ccc(NC(=O)c2ccc(Nc3nc(N4C[C@H](N)C[C@H](N)C4)nc(N4C[C@H](N)C[C@H](N)C4)n3)cc2O)cc1` [N-[4-(4-cyano-phenylcarbamoyl)-3-hydroxy-phenyl]-4,6-Bis-((3R,5S)-3,5-diamino-piperidin-1-yl)-[1,3,5]triazine-2-amine] was run?
**A.** The MIC was less than 64 µg/mL.

**Q.** How did the MIC turn out when `Cc1ccc(C(=O)Nc2ccc(Nc3nc(N4C[C@H](N)C[C@H](N)C4)nc(N4CCC[C@@H](O)C4)n3)cc2O)cc1` [N-{4-[4-((3R,5S)-3,5-Diamino-piperidin-1-yl)-6-((R)-3-hydroxy-piperidin-1-yl)-[1,3,5]triazin-2-ylamino]-2-hydroxy-phenyl}-4-methyl-benzamide] was run?
**A.** Its MIC is greater than 64 µg/mL.

**Q.** `NC[C@H]1[C@@H](O)CCN1c1nc(Nc2ccc(C(=O)CC(=O)Nc3ccccc3Cl)cc2)nc(N2C[C@H](N)C[C@H](N)C2)n1` [3-{4-[4-((2S,3S)-2-Aminomethyl-3-hydroxy-pyrrolidin-1-yl)-6-((3R,5S)-3,5-diamino-piperidin-1-yl)-[1,3,5]triazin-2-ylamino]-phenyl}-N-(2-chloro-phenyl)-3-oxo-propionamide] was tested. Which MIC did it give?
**A.** The MIC was less than 64 µg/mL.

**Q.** Which MIC does the source give for `N[C@@H]1C[C@H](N)CN(c2nc(Nc3ccc(C(=O)CC(=O)Nc4cc(C(F)(F)F)ccc4Cl)cc3)nc(N3C[C@H](N)C[C@H](N)C3)n2)C1` [N-{4-[2-(2-chloro-5-trifluoromethyl-phenylcarbamoyl)-acetyl]-phenyl}-4,6-Bis-((3R,5S)-3,5-diamino-piperidin-1-yl)-[1,3,5]triazine-2-amine] here?
**A.** The MIC was less than 16 µg/mL.

Same assay, conditions: MIC in E. coli or S. aureus; two-fold serial dilutions 64 to 0.5 μg/ml in duplicate; 18 hours of incubation at 35° C.

**Q.** How did the “Potency (MIC)” value turn out when “N-(4-thioureido-iminomethyl-phenyl)-4,6-Bis-((3R,5S)-3,5-diamino-piperidin-1-yl)-[1,3,5]triazine-2-amine” was run?
**A.** The value was “+ (+ means MIC<64 μg/ml in E. coli or S. aureus)”.
